Molecular target: Nicotinamide phosphoribosyltransferase (Homo sapiens, UniProt P43490)
Assay: Enzymatic Reaction Assay: The NAMPT enzymatic reactions were carried out in Buffer A (50 mM Hepes pH 7.5, 50 mM NaCl, 5 mM MgCl2, and 1 mM THP) in 96-well V-bottom plates. The compound titrations were performed in a separate dilution plate by serially diluting the compounds in DMSO to make a 100× stock. Buffer A (89 μL) containing 33 nM of NAMPT protein was added to 1 μL of 100× compound plate containing controls (e.g. DMSO or blank). The compound and enzyme mixture was incubated for 15 min at rt, then 10 μL of 10× substrate and co-factors in Buffer A were added to the test well to make a final concentration of 1 μM NAM, 100 μM 5-Phospho-D-ribose 1-diphosphate (PRPP), and 2.5 mM Adenosine 5′-triphosphate (ATP). The reaction was allowed to proceed for 30 min at rt, then was quenched with the addition of 11 μL of a solution of formic acid and L-Cystathionine to make a final concentration of 1% formic acid and 10 μM L-Cystathionine. Background and signal strength was determined by addition (or non-addition) of a serial dilution of NMN to a pre-quenched enzyme and cofactor mix.

Chain of Nicotinamide phosphoribosyltransferase (P43490 whole entry): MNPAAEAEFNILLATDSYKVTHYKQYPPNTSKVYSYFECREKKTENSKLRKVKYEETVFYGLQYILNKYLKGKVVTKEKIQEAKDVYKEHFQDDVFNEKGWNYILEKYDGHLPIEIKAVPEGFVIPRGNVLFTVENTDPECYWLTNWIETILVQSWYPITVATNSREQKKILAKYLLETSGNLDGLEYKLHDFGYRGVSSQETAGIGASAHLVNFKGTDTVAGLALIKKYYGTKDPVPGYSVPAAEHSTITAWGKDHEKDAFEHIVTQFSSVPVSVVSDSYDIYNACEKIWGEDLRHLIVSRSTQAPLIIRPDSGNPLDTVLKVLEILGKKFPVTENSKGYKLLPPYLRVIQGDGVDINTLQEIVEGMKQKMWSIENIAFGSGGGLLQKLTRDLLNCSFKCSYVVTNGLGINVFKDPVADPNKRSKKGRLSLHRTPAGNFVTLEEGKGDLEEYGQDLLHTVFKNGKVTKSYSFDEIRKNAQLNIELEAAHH

Row | IC50 | Compound
1 | 0.0484 µM | CC(C)N1CCN(S(=O)(=O)c2ccc(CNC(=O)c3ccc4nccn4c3)cc2)CC1
2 | 0.15 µM | O=C(NCc1ccc(S(=O)(=O)N2CC3COCC3C2)cc1)c1cnc2[nH]ncc2c1 (mixture of isomers)
3 | 0.0434 µM | CCN1CCC([S+]([O-])c2ccc(CNC(=O)c3ccc4nccn4c3)cc2)CC1 (stereo not drawn)

Source: ChEMBL document CHEMBL5727788, “Amido-benzyl sulfone and sulfoxide derivates” (2020)
